Data reported in the NIST ThermoML archive (doi:10.1016/j.fluid.2014.08.014).
± gives the expanded uncertainty stated by the source.

Assay: refractive index (Na D-line) (dimensionless)
Details: 293.15 K; 101.33 kPa; Liquid; Standard Abbe refractometry

SMILES	refractive index
CC(C)CO [2-methyl-1-propanol]	1.3955 ± 0.0005
CC(C)(C)O [2-methylpropan-2-ol]	1.3881 ± 0.0005
CCCCOC(C)=O [butyl ethanoate]	1.3951 ± 0.0005
CCO [ethanol]	1.3616 ± 0.0005
O [water]	1.3328 ± 0.0005
